The values below come from PMC6272711, “5-Methoxyquinoline Derivatives as a New Class of EZH2 Inhibitors” (Molecules, 2015).

One assay deals with MDA-MB-231. Nature of the assay: MTT cell growth inhibition, MDA-MB-231. In kind it is cell-based. As to conditions: Homo sapiens, MDA-MB-231, 96 h, read-out: IC50 MDA-MB-231.
The target in the next assay is EZH2 (Homo sapiens, UniProt Q15910). Nature of the assay: AlphaLISA assay for EZH2. In kind it is biochemical. The note with it: enzymatic assay; means of at least three measurements. (In general: Alpha assays give light when donor and acceptor beads are brought close together.)
Another assay relates to HCT15. Nature of the assay: MTT cell growth inhibition, HCT15. The format is cell-based, human. As to conditions: Homo sapiens, HCT-15, 96 h, read-out: IC50 HCT15, MTT, treatment 96 h; means of at least three measurements.

The term IC50 denotes the point on the concentration scale where inhibition reaches its midpoint.

Chain of EZH2 (Q15910 whole entry): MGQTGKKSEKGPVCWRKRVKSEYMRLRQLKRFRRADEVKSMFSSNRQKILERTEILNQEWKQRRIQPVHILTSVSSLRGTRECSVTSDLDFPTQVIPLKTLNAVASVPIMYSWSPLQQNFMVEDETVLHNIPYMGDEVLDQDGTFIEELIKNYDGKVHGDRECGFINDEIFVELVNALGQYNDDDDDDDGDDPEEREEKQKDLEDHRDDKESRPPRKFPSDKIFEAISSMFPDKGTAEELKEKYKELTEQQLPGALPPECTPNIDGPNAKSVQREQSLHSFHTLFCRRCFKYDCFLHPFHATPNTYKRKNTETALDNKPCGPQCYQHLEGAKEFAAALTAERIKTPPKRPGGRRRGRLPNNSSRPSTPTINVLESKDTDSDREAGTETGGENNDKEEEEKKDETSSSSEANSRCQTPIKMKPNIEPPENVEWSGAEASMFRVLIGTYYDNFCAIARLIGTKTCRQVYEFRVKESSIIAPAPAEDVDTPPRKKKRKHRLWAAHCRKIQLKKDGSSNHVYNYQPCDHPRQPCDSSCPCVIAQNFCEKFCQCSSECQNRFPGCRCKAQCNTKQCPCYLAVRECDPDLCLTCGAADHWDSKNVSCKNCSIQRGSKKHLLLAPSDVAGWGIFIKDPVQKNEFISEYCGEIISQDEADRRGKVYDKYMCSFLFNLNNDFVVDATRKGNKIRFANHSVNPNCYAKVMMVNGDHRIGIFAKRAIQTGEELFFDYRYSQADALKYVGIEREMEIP
Chain of EZH2 (O75530 whole entry partner): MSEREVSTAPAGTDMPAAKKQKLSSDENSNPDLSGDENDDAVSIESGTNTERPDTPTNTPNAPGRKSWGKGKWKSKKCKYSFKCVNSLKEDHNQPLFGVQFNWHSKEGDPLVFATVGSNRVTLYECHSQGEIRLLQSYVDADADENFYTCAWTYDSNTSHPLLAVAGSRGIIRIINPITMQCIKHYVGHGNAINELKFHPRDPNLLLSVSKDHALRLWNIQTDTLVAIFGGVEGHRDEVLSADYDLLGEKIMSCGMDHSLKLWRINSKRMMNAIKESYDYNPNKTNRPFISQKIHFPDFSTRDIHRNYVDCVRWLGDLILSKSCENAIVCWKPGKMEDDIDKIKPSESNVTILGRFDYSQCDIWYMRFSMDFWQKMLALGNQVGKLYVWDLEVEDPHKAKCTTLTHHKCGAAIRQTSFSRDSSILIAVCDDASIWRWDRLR
Chain of EZH2 (Q15022 whole entry partner): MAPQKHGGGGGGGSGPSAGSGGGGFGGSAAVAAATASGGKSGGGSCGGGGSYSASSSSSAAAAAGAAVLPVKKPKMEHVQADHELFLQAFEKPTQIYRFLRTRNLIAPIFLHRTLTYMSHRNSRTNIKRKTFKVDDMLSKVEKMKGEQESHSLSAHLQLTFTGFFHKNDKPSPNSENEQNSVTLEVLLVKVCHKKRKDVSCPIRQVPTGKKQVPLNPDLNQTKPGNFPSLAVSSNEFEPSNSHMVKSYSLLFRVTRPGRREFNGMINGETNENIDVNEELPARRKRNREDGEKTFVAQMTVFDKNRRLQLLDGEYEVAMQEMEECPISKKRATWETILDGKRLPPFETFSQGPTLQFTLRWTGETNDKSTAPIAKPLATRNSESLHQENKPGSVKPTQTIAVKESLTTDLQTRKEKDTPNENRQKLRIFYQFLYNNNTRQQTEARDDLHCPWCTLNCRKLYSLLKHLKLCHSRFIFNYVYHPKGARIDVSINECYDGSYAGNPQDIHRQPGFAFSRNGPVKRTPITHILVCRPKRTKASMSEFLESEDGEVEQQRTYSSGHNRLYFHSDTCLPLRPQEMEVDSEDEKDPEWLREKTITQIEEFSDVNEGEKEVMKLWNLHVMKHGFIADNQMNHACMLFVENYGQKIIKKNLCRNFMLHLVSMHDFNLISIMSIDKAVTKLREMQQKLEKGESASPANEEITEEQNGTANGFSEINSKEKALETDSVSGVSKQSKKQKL

On to `COc1ccc(OC)c2c(NC3CCN(C)CC3)cc(N3CCCN(C)CC3)nc12` [Compound 9f, 5,8-Dimethoxy-2-(4-methyl-1,4-diazepan-1-yl)-N-(1-methylpiperidin-4-yl)quinolin-4-amine], for which the values for the IC50 in the assay with MDA-MB-231, on EZH2 and in the assay on HCT15 were 12.4 ± 0.49 µM, 9.2 ± 0.51 µM and 15.5 ± 0.53 µM, respectively.

With `COc1cccc2nc(N3CCCN(C)CC3)cc(Nc3ccc(C)cc3)c12` [Compound 5r, 5-Methoxy-2-(4-methyl-1,4-diazepan-1-yl)-N-(p-tolyl)quinolin-4-amine], the IC50 with MDA-MB-231 was > 20 µM; on EZH2 it was 39.7 ± 1.26 µM; with HCT15, 12.9 ± 0.89 µM.

With `COc1cccc2nc(N3CCCN(C)CC3)cc(Nc3ccc(N(C)C)cc3)c12` [Compound 5p, N1-(5-Methoxy-2-(4-methyl-1,4-diazepan-1-yl)quinolin-4-yl)-N4,N4-dimethylbenzene-1,4-diamine], the IC50 came out at 16.2 ± 1.67 µM with MDA-MB-231, 27.6 ± 0.97 µM on EZH2 and 17.4 ± 1.54 µM with HCT15.

For `COc1cccc2nc(Nc3ncccn3)cc(NC3CCN(Cc4ccccc4)CC3)c12` [Compound 5d, N4-(1-Benzylpiperidin-4-yl)-5-methoxy-N2-(pyrimidin-2-yl)quinoline-2,4-diamine], the IC50 in the assay with MDA-MB-231 is > 20 µM; against EZH2, 17.5 ± 0.96 µM; with HCT15, > 20 µM.

Consider `COc1ccc2c(NC3CCN(C)CC3)cc(N3CCCN(C)CC3)nc2c1OC` [Compound 9i, 7,8-Dimethoxy-2-(4-methyl-1,4-diazepan-1-yl)-N-(1-methylpiperidin-4-yl)quinolin-4-amine], for which the IC50 is > 20 µM in the assay with MDA-MB-231, 13.7 ± 1.32 µM against EZH2 and > 20 µM with HCT15.

`COc1cccc2nc(N3CCCN(C)CC3)cc(NC3CCOCC3)c12` [Compound 5l, 5-Methoxy-2-(4-methyl-1,4-diazepan-1-yl)-N-(tetrahydro-2H-pyran-4-yl)quinolin-4-amine]: the IC50 with MDA-MB-231 was determined as 2.4 ± 0.49 µM; against EZH2, 2.8 ± 0.21 µM; with HCT15, 15.5 ± 0.2 µM.

For the compound `COc1ccccc1Nc1cc(N2CCCN(C)CC2)nc2cccc(OC)c12` [Compound 5o, 5-Methoxy-N-(2-methoxyphenyl)-2-(4-methyl-1,4-diazepan-1-yl)quinolin-4-amine], the IC50 is > 20 µM in the assay on MDA-MB-231, 17.5 ± 1.13 µM against EZH2 and > 20 µM in the assay on HCT15.

On to `COc1cccc2nc(N3CCN(C)CC3)cc(NC3CCN(Cc4ccccc4)CC3)c12` [Compound 5a, N-(1-Benzylpiperidin-4-yl)-5-methoxy-2-(4-methylpiperazin-1-yl)quinolin-4-amine], for which the IC50 was 11.9 ± 1.83 µM in the assay on MDA-MB-231, 16.4 ± 1.24 µM at EZH2 and 12.3 ± 0.95 µM in the assay on HCT15.

Turning to `COc1cccc2nc(Nc3cc(C(F)(F)F)cc(C(F)(F)F)c3)cc(NC3CCN(Cc4ccccc4)CC3)c12` [Compound 5f, N4-(1-Benzylpiperidin-4-yl)-N2-(3,5-bis(trifluoromethyl)phenyl)-5-methoxyquinoline-2,4-diamine], the values for the IC50 with MDA-MB-231, against EZH2 and in the assay on HCT15 were > 20 µM, 21.6 ± 2.35 µM and 10.2 ± 1.24 µM, respectively.

Take `COc1cccc2nc(Cl)cc(NC3CCN(Cc4ccccc4)CC3)c12` [Compound 1, N-(1-benzylpiperidin-4-yl)-2-chloro-5-methoxyquinolin-4-amine]: in the assay on MDA-MB-231, the IC50 is > 20 µM.

For `COc1cccc2nc(N3CCCCC3)cc(NC3CCN(Cc4ccccc4)CC3)c12` [Compound 5c, N-(1-Benzylpiperidin-4-yl)-5-methoxy-2-(piperidin-1-yl)quinolin-4-amine], the IC50 in the assay on MDA-MB-231 was determined as 5.6 ± 0.14 µM; against EZH2 it was 32 ± 2.78 µM; in the assay with HCT15, 7.8 ± 0.46 µM.

Take `COc1cccc2nc(N3CCCN(C)CC3)cc(NCCC(C)C)c12` [Compound 5h, N-Isopentyl-5-methoxy-2-(4-methyl-1,4-diazepan-1-yl)quinolin-4-amine]: the IC50 with MDA-MB-231 was determined as 4.31 ± 0.57 µM; on EZH2 it was 11.5 ± 1.21 µM; in the assay on HCT15, 5.46 ± 0.85 µM.

In the case of `COc1cc(OC)c2c(NC3CCN(C)CC3)cc(N3CCCN(C)CC3)nc2c1` [Compound 9e, 5,7-Dimethoxy-2-(4-methyl-1,4-diazepan-1-yl)-N-(1-methylpiperidin-4-yl)quinolin-4-amine], the IC50 was 12.5 ± 0.62 µM in the assay with MDA-MB-231, 6.7 ± 0.36 µM on EZH2 and 10.6 ± 0.83 µM with HCT15.

`COc1cccc2nc(N3CCCN(C)CC3)cc(Nc3ccc([N+](=O)[O-])cc3)c12` [Compound 5u, 5-Methoxy-2-(4-methyl-1,4-diazepan-1-yl)-N-(4-nitrophenyl)quinolin-4-amine]: the IC50 in the assay on MDA-MB-231 worked out at 14.9 ± 2.2 µM; at EZH2, 26.2 ± 2.54 µM; in the assay with HCT15, 17.8 ± 1.27 µM.

Regarding `COc1cccc2nc(N3CCCN(C)CC3)cc(NCCN3CCN(C)CC3)c12` [Compound 5j, 5-Methoxy-2-(4-methyl-1,4-diazepan-1-yl)-N-(2-(4-methylpiperazin-1-yl)ethyl)quinolin-4-amine], the figures for the IC50 with MDA-MB-231, against EZH2 and with HCT15 were 12.4 ± 0.95 µM, 4.2 ± 0.2 µM and 18.6 ± 2.2 µM, respectively.

`COc1cccc2nc(N3CCCN(C)CC3)cc(NC3CCN(Cc4ccccc4)CC3)c12` [Compound 5g, N-(1-Benzylpiperidin-4-yl)-5-methoxy-2-(4-methyl-1,4-diazepan-1-yl)quinolin-4-amine]: the results for the IC50 with MDA-MB-231, at EZH2 and in the assay on HCT15 were 4.56 ± 0.24 µM, 6.6 ± 0.49 µM and 3.78 ± 0.07 µM, respectively.

`COc1cccc2nc(Nc3ccc([N+](=O)[O-])cc3)cc(NC3CCN(Cc4ccccc4)CC3)c12` [Compound 5e, N4-(1-Benzylpiperidin-4-yl)-5-methoxy-N2-(4-nitrophenyl)quinoline-2,4-diamine]: the IC50 was 14.9 ± 2.2 µM in the assay on MDA-MB-231, 29.4 ± 1.01 µM at EZH2 and 17.8 ± 1.27 µM with HCT15.

`COc1cccc2nc(N3CCCN(C)CC3)cc(Nc3cc(C(F)(F)F)cc(C(F)(F)F)c3)c12` [Compound 5v, N-(3,5-Bis(trifluoromethyl)phenyl)-5-methoxy-2-(4-methyl-1,4-diazepan-1-yl)quinolin-4-amine]: the IC50 with MDA-MB-231 is > 20 µM; against EZH2 it was 34.1 ± 2.22 µM; with HCT15 it was 10.2 ± 1.24 µM.

Turning to `COc1ccc2nc(N3CCCN(C)CC3)cc(NC3CCN(C)CC3)c2c1OC` [Compound 9d, 5,6-Dimethoxy-2-(4-methyl-1,4-diazepan-1-yl)-N-(1-methylpiperidin-4-yl)quinolin-4-amine], the results for the IC50 with MDA-MB-231, against EZH2 and with HCT15 were 12.4 ± 0.95 µM, 5.6 ± 0.45 µM and 8.6 ± 2.2 µM, respectively.

With `COc1cccc2nc(N3CCOCC3)cc(NC3CCN(Cc4ccccc4)CC3)c12` [Compound 5b, N-(1-Benzylpiperidin-4-yl)-5-methoxy-2-morpholinoquinolin-4-amine], the results for the IC50 in the assay with MDA-MB-231, at EZH2 and in the assay on HCT15 were 14.2 ± 1.97 µM, 23 ± 2.06 µM and 15.6 ± 1.27 µM, respectively.

For `COc1cc(OC)c2nc(N3CCCN(C)CC3)cc(NC3CCN(C)CC3)c2c1` [Compound 9h, 6,8-Dimethoxy-2-(4-methyl-1,4-diazepan-1-yl)-N-(1-methylpiperidin-4-yl)quinolin-4-amine], the results for the half-maximal inhibitory concentration (IC50) with MDA-MB-231, against EZH2 and with HCT15 were 13.2 ± 1.64 µM, 14.9 ± 1.71 µM and 19.8 ± 1.27 µM, respectively.

Take `COc1cccc(Nc2cc(N3CCCN(C)CC3)nc3cccc(OC)c23)c1` [Compound 5s, 5-Methoxy-N-(3-methoxyphenyl)-2-(4-methyl-1,4-diazepan-1-yl)quinolin-4-amine]: the IC50 in the assay on MDA-MB-231 stood at 16.9 ± 1.06 µM; at EZH2, 16.8 ± 0.94 µM; in the assay with HCT15 it was 19.6 ± 0.56 µM.

Regarding `COc1ccc(Nc2cc(N3CCCN(C)CC3)nc3cccc(OC)c23)cc1` [Compound 5m, 5-Methoxy-N-(4-methoxyphenyl)-2-(4-methyl-1,4-diazepan-1-yl)quinolin-4-amine], the IC50 is > 20 µM in the assay on MDA-MB-231, 19.7 ± 2.56 µM against EZH2 and 18.9 ± 1.97 µM in the assay on HCT15.

Regarding `COc1cccc2nc(N3CCCN(C)CC3)cc(NC3CCN(C(C)C)CC3)c12` [Compound 5i, N-(1-Isopropylpiperidin-4-yl)-5-methoxy-2-(4-methyl-1,4-diazepan-1-yl)quinolin-4-amine], the results for the IC50 in the assay on MDA-MB-231, against EZH2 and in the assay with HCT15 were 15.7 ± 1.27 µM, 17.4 ± 1.07 µM and > 20 µM, respectively.

For the compound `COc1cccc2nc(N3CCCN(C)CC3)cc(Nc3cncnc3)c12` [Compound 5t, 5-Methoxy-2-(4-methyl-1,4-diazepan-1-yl)-N-(pyrimidin-5-yl)quinolin-4-amine], the IC50 in the assay with MDA-MB-231 is > 20 µM; against EZH2, 35.3 ± 1.61 µM; in the assay on HCT15 it was > 20 µM.

With `COc1ccc(Nc2cc(N3CCCN(C)CC3)nc3cccc(OC)c23)c(C)c1` [Compound 5q, 5-Methoxy-N-(4-methoxy-2-methylphenyl)-2-(4-methyl-1,4-diazepan-1-yl)quinolin-4-amine], the IC50 in the assay with MDA-MB-231 amounted to 14.5 ± 1.23 µM; on EZH2, 34.8 ± 1.54 µM; with HCT15 it was 16.9 ± 0.36 µM.

With `COc1cccc2nc(N3CCCN(C)CC3)cc(Nc3ccc(C(C)C)cc3)c12` [Compound 5n, N-(4-Isopropylphenyl)-5-methoxy-2-(4-methyl-1,4-diazepan-1-yl)quinolin-4-amine], the IC50 in the assay with MDA-MB-231 is 13.2 ± 2.53 µM; against EZH2 it was 26.4 ± 2.04 µM; with HCT15, 14.6 ± 1.27 µM.

As to `COc1cc2nc(N3CCCN(C)CC3)cc(NC3CCN(C)CC3)c2cc1OC` [Compound 9g, 6,7-Dimethoxy-2-(4-methyl-1,4-diazepan-1-yl)-N-(1-methylpiperidin-4-yl)quinolin-4-amine], the IC50 in the assay on MDA-MB-231 is > 20 µM; at EZH2, 17.8 ± 2.07 µM; in the assay with HCT15, 15.9 ± 1.85 µM.
